# Patent US10047059B2, “Substituted quinoxalines for inhibiting kinase activity” (NEUPHARMA, INC., priority 2012, dated 2018)
# Key:
# BRAF V600E = target: T1, BRAF V600E (Homo sapiens, UniProt P15056, V600E); test: Z'-LYTE kinase inhibition assay against BRAF V600E; format: biochemical; conditions: Z'-LYTE method
# T1 construct: purchased Invitrogen
# Description: (§1) Inhibitory activities Inhibitory activities of compounds against BRAF, and BRAF V600E were measured by Invitrogen using Z′-LYTE® Method as briefly described in the following. 4× Test compounds are dissolved in 1% DMSO. […] ATP solutions are diluted to a 4×ATP working concentration in Kinase Buffer (50 mM HEPES pH 7.5, 0.01% BRIJ-35, 10 mM MgCl2, 1 mM EGTA). Reaction started by 30-second shaking of mixture consisting of 2.5 μL 4× test compound, […] and 2.5 μL 4×ATP Solution on Bar-coded Corning, low volume NBS, black 384-well plate (Corning Cat. #3676). Then the mixture was incubated for 60-minute at room temperature for the kinase reaction, followed by addition of 5 μL of a 1:1024 dilution of development reagent A and 30-second plate shake. The mixture was then incubated for another 60-minute at room temperature for development reaction. Fluorescence was read by plate reader. IC50 was calculated by plotting the concentration of compound vs the percentage of inhibition in treated wells using GraphPad Prism 5.
# (§2) Table 2 and 3 show % inhibition at 1 μM of several compounds of the invention against BRAF and BRAF V600E, respectively, using Z′-LYTE® method.
# The scale utilized in Table 4 is as follows: +++ less than 100 nM; and ++ greater than 100 nM.
# A375 cells = test: Inhibition of cancer cell growth, MTT or MTS assay, A375; format: cell-based; conditions: Homo sapiens, A-375, 72 h incubation
# Description: (§3) Inhibition of cell growth by compounds was measured using MTT or MTS assay. Tumor cell lines were purchased from ATCC (American Type Culture Collection, Manassas, Va.). All cell lines were maintained in RPMI 1640 (Hyclone) supplemented with 10% fetal bovine serum (FBS, Hyclone), glutamine (2 mM, Hyclone), and antibiotics (penicillin 100 U/mL and streptomycin 50 μg/mL) at 37° C. in a humidified atmosphere of 5% CO2 in air. Taxol (as a positive control, Sigma) and compounds were dissolved in DMSO (Sigma), and the final concentration of DMSO in the medium was 1%. Tumor cells were plated in 96-well plates at densities of about 2000 (A375) or 4000 (A549 and Colo205) cells/well of a 96-well plate and allowed to adhere/grow for 24 h. They were then treated with various concentrations of drug and incubated for 72 h. For MTT method, medium was then removed by inverting and tapping the plates. 100 μL of MTT (0.5 mg/ml) was added to each well followed by an incubated at 37° C. for 4 h. MTT was then removed and 200 μL of DMSO was added to each well, and the ODs at 570 nm were measured after a 5 second shaking cycle in a 96-well spectrophotometer. For MTS method, 20 μL MTS (CellTiter 96 Aqueous One Solution, Promega) was added to each well followed by an incubated at 37° C. for 2-4 h, solutions were then directly put in a 96-well spectrophotometer, and the ODs at 490 nm were measured.
# (§4) All concentrations of compounds were tested in triplicate and controls were averaged over 4 wells. IC50 was calculated by plotting the concentration of compound vs the percentage of inhibition in treated wells using GraphPad Prism 5. […] The scale utilized in Tables 7-9 is as follows: +++ less than 1000 nM; ++ between 1000 nM and 5000 nM; and + greater than 5000 nM. The scale utilized in […]
# BRAF = target: T2, BRAF (Homo sapiens, UniProt P15056); test: Z'-LYTE kinase inhibition assay against BRAF; format: biochemical; conditions: Z'-LYTE method
# T2 construct: purchased Invitrogen
# Description: as §1, §2
# KDR (VEGFR2) = target: T3, KDR (VEGFR2) (Homo sapiens, UniProt P35968); test: Z'-LYTE kinase inhibition assay against KDR; format: biochemical; conditions: Z'-LYTE method
# T3 construct: purchased Invitrogen
# Description: Inhibitory activities of compounds against KDR (VEGFR2) were also measured by Invitrogen using Z′-LYTE® Method as described above with the following modification. The 2×KDR (VEGFR2)/Tyr 01 mixture is prepared in 50 mM HEPES pH 7.5, 0.01% BRIJ-35, 10 mM MgCl2, 1 mM EGTA. The final 10 μL Kinase Reaction consists of 0.5-11.7 ng KDR (VEGFR2) and 2 μM Tyr 01 in 50 mM HEPES pH 7.5, 0.01% BRIJ-35, 10 mM MgCl2, 1 mM EGTA. After the 1 hour Kinase Reaction incubation, 5 μL of a 1:256 dilution of Development Reagent B is added.
# The scale utilized in Table 6 is as follows: +++ less than 100 nM; and ++ greater than 100 nM
# A549 cells = test: Inhibition of cancer cell growth, MTT or MTS assay, A549; format: cell-based; conditions: Homo sapiens, 72 h incubation
# Description: as §3, §4
# Colo205 cells = test: Inhibition of cancer cell growth, MTT or MTS assay, Colo205; format: cell-based; conditions: Homo sapiens, COLO 205, 72 h incubation
# Description: as §3, §4
# T1 sequence (P15056 whole entry V600E): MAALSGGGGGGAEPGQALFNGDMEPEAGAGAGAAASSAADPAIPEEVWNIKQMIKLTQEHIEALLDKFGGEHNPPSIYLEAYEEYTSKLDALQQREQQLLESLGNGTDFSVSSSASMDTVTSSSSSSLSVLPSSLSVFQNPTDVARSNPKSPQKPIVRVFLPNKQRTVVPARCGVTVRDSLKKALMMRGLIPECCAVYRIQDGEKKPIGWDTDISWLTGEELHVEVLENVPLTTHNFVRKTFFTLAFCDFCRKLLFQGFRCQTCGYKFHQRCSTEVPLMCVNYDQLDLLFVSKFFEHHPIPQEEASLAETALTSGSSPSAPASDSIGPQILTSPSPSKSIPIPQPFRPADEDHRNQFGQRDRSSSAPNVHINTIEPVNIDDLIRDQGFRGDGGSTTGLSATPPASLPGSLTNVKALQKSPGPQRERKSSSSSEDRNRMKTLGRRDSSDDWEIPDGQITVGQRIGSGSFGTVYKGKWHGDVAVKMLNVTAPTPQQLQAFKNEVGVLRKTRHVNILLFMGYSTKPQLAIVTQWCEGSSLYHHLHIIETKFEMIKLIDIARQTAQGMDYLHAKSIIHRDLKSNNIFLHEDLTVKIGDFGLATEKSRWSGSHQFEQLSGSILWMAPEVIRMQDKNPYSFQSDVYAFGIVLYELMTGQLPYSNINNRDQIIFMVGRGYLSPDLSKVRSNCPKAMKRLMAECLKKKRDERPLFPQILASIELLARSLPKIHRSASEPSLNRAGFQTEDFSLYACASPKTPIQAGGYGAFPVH
# T3 sequence (P35968 20-1356): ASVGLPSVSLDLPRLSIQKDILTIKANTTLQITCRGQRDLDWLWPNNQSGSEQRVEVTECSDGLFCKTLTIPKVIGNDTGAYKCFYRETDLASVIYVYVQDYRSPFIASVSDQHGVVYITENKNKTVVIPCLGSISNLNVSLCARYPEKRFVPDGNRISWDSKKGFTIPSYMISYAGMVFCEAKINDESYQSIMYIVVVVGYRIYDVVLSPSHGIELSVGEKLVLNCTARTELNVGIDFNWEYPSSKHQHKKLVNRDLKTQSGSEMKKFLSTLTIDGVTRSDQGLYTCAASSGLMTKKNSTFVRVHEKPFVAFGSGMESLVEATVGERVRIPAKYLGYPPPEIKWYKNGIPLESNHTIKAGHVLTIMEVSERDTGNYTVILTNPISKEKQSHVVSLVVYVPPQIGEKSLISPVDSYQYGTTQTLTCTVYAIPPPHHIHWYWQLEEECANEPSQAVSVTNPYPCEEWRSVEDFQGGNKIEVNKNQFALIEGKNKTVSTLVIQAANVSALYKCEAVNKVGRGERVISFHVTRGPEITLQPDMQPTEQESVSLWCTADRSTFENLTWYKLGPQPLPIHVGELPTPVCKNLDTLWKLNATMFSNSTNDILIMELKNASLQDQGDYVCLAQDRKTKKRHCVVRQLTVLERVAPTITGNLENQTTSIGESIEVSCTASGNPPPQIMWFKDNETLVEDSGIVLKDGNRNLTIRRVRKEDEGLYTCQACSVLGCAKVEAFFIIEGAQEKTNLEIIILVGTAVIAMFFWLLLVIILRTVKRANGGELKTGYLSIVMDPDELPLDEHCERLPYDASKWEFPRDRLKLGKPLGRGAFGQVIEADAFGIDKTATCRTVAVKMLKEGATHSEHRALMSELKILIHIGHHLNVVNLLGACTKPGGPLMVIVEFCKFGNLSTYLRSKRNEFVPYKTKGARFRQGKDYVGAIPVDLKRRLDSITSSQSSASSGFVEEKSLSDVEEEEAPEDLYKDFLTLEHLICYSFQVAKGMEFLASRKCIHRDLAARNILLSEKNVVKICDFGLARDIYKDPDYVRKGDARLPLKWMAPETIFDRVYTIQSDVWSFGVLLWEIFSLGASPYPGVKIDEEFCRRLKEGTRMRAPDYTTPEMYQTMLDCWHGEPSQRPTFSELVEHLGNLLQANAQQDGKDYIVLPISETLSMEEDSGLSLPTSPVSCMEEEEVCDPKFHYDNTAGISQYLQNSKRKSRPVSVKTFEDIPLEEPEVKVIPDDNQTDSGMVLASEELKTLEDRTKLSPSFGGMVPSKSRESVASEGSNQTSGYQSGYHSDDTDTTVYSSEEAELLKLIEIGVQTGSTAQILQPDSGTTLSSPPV
# T2 sequence (P15056 whole entry): as the sequence (P15056 whole entry V600E) above, with E600V counted along it
compound,measurement,setting,value
"O=C(Nc1ccc(F)cc1)Nc1ccc(C(=O)c2ccc3ncc(N4CCOCC4)nc3c2)cc1 [Compound C05, 1-(4-fluorophenyl)-3-(4-(3-morpholinoquinoxaline-6-carbonyl)phenyl)urea]",inhibition at 1 µM,BRAF V600E,< 70%
same,IC50,A375 cells,> 5000 nM
same,inhibition at 1 µM,BRAF,< 70%
same,inhibition at 1 µM,KDR (VEGFR2),< 70%
same,IC50,A549 cells,> 5000 nM
"O=C(Nc1ccc(Cl)cc1)Nc1ccc(C(=O)c2ccc3ncc(N4CCOCC4)nc3c2)cc1 [Compound C04, 1-(4-chlorophenyl)-3-(4-(3-morpholinoquinoxaline-6-carbonyl)phenyl)urea]",inhibition at 1 µM,BRAF V600E,< 70%
same,inhibition at 1 µM,BRAF,< 70%
same,inhibition at 1 µM,KDR (VEGFR2),< 70%
same,IC50,A549 cells,1000 to 5000 nM
"N#Cc1ccc(NC(=O)Nc2ccc(C(=O)c3ccc4ncc(N5CCNCC5)nc4c3)cc2)cc1C(F)(F)F [Compound C16, 1-(4-cyano-3-(trifluoromethyl)phenyl)-3-(4-(3-(piperazin-1-yl)quinoxaline-6-carbonyl)phenyl)urea]",inhibition at 1 µM,BRAF V600E,> 89%
same,IC50,A375 cells,< 1000 nM
same,inhibition at 1 µM,BRAF,< 70%
same,IC50,Colo205 cells,> 5000 nM
same,inhibition at 1 µM,KDR (VEGFR2),> 89%
same,IC50,KDR (VEGFR2),> 100 nM
same,IC50,A549 cells,1000 to 5000 nM
"O=C(Nc1ccc(C(=O)c2ccc3ncc(N4CCNCC4)nc3c2)cc1)Nc1cccc(F)c1 [Compound C19, 1-(3-fluorophenyl)-3-(4-(3-(piperazin-1-yl)quinoxaline-6-carbonyl)phenyl)urea]",inhibition at 1 µM,BRAF V600E,> 89%
same,IC50,A375 cells,1000 to 5000 nM
same,inhibition at 1 µM,BRAF,< 70%
same,inhibition at 1 µM,KDR (VEGFR2),< 70%
same,IC50,A549 cells,1000 to 5000 nM
"O=C(Nc1ccc(C(=O)c2ccc3ncc(N4CCOCC4)nc3c2)cc1)Nc1cccc(Cl)c1 [Compound C03, 1-(3-chlorophenyl)-3-(4-(3-morpholinoquinoxaline-6-carbonyl)phenyl)urea]",inhibition at 1 µM,BRAF V600E,< 70%
same,IC50,A375 cells,1000 to 5000 nM
same,inhibition at 1 µM,BRAF,< 70%
same,inhibition at 1 µM,KDR (VEGFR2),< 70%
same,IC50,A549 cells,1000 to 5000 nM
"O=C(Nc1ccc(C(=O)c2ccc3ncc(N4CCNCC4)nc3c2)cc1)Nc1cccc(C(F)(F)F)c1 [Compound C17, 1-(4-(3-(piperazin-1-yl)quinoxaline-6-carbonyl)phenyl)-3-(3-(trifluoromethyl)phenyl)urea]",inhibition at 1 µM,BRAF V600E,> 89%
same,IC50,BRAF V600E,< 100 nM
same,IC50,A375 cells,< 1000 nM
same,inhibition at 1 µM,BRAF,< 70%
same,IC50,Colo205 cells,1000 to 5000 nM
same,inhibition at 1 µM,KDR (VEGFR2),70 to 89%
same,IC50,KDR (VEGFR2),< 100 nM
same,IC50,A549 cells,< 1000 nM
"O=C(Nc1cccc(F)c1)Nc1ccc(C(=O)c2ccc3ncc(N4CCNCC4)nc3c2)c(F)c1 [Compound C20, 1-(3-fluoro-4-(3-(piperazin-1-yl)quinoxaline-6-carbonyl)phenyl)-3-(3-fluorophenyl)urea]",inhibition at 1 µM,BRAF V600E,> 89%
same,IC50,A375 cells,1000 to 5000 nM
same,inhibition at 1 µM,BRAF,< 70%
same,inhibition at 1 µM,KDR (VEGFR2),< 70%
same,IC50,A549 cells,> 5000 nM
"O=C(Nc1cccc(C(F)(F)F)c1)Nc1ccc(C(=O)c2ccc3ncc(N4CCNCC4)nc3c2)c(F)c1 [Compound C21, 1-(3-fluoro-4-(3-(piperazin-1-yl)quinoxaline-6-carbonyl)phenyl)-3-(3-(trifluoromethyl)phenyl)urea]",inhibition at 1 µM,BRAF V600E,> 89%
same,IC50,A375 cells,< 1000 nM
same,inhibition at 1 µM,BRAF,< 70%
same,IC50,Colo205 cells,1000 to 5000 nM
same,inhibition at 1 µM,KDR (VEGFR2),> 89%
same,IC50,KDR (VEGFR2),< 100 nM
same,IC50,A549 cells,< 1000 nM
"O=C(Nc1ccc(C(=O)c2ccc3nccnc3c2)cc1)Nc1cccc(C(F)(F)F)c1 [Compound C01, 1-(4-(quinoxaline-6-carbonyl)phenyl)-3-(3-(trifluoromethyl)phenyl)urea]",inhibition at 1 µM,BRAF V600E,> 89%
same,IC50,A375 cells,1000 to 5000 nM
same,inhibition at 1 µM,BRAF,< 70%
same,IC50,Colo205 cells,> 5000 nM
same,inhibition at 1 µM,KDR (VEGFR2),< 70%
same,IC50,A549 cells,> 5000 nM
"O=C(Nc1ccc(C(=O)c2ccc3ncc(N4CCNCC4)nc3c2)cc1)Nc1ccc(C(F)(F)F)cc1 [Compound C13, 1-(4-(3-(piperazin-1-yl)quinoxaline-6-carbonyl)phenyl)-3-(4-(trifluoromethyl)phenyl)urea]",inhibition at 1 µM,BRAF V600E,> 89%
same,IC50,A375 cells,< 1000 nM
same,inhibition at 1 µM,BRAF,< 70%
same,inhibition at 1 µM,KDR (VEGFR2),< 70%
same,IC50,A549 cells,1000 to 5000 nM
"O=C(Nc1ccc(C(=O)c2ccc3nccnc3c2)cc1)Nc1cccc(F)c1 [Compound C02, 1-(3-fluorophenyl)-3-(4-(quinoxaline-6-carbonyl)phenyl)urea]",inhibition at 1 µM,BRAF V600E,< 70%
same,IC50,A375 cells,1000 to 5000 nM
same,inhibition at 1 µM,BRAF,< 70%
same,inhibition at 1 µM,KDR (VEGFR2),< 70%
same,IC50,A549 cells,1000 to 5000 nM
"O=C(Nc1ccc(C(=O)c2ccc3ncc(N4CCNCC4)nc3c2)cc1)Nc1ccc(Cl)c(C(F)(F)F)c1 [Compound C12, 1-(4-chloro-3-(trifluoromethyl)phenyl)-3-(4-(3-(piperazin-1-yl)quinoxaline-6-carbonyl)phenyl)urea]",inhibition at 1 µM,BRAF V600E,70 to 89%
same,IC50,A375 cells,< 1000 nM
same,inhibition at 1 µM,BRAF,< 70%
same,IC50,Colo205 cells,1000 to 5000 nM
same,inhibition at 1 µM,KDR (VEGFR2),70 to 89%
same,IC50,KDR (VEGFR2),> 100 nM
same,IC50,A549 cells,< 1000 nM
"N#Cc1ccc(CC(=O)Nc2ccc(C(=O)c3ccc4ncc(N5CCNCC5)nc4c3)c(F)c2)cc1C(F)(F)F [Compound C26, 2-(4-cyano-3-(trifluoromethyl)phenyl)-N-(3-fluoro-4-(3-(piperazin-1-yl)quinoxaline-6-carbonyl)phenyl)acetamide]",inhibition at 1 µM,BRAF V600E,> 89%
same,IC50,A375 cells,< 1000 nM
same,inhibition at 1 µM,BRAF,< 70%
same,inhibition at 1 µM,KDR (VEGFR2),> 89%
same,IC50,KDR (VEGFR2),< 100 nM
same,IC50,A549 cells,< 1000 nM
"O=C(Nc1cccc(C(F)(F)F)c1)Nc1ccc(C(=O)c2ccc3ncc(N4CCOCC4)nc3c2)c(F)c1 [Compound C24, 1-(3-fluoro-4-(3-morpholinoquinoxaline-6-carbonyl)phenyl)-3-(3-(trifluoromethyl)phenyl)urea]",inhibition at 1 µM,BRAF V600E,< 70%
same,IC50,A375 cells,1000 to 5000 nM
same,inhibition at 1 µM,KDR (VEGFR2),70 to 89%
same,IC50,A549 cells,1000 to 5000 nM
"O=C(Nc1ccc(C(=O)c2ccc3ncc(C4CCNCC4)nc3c2)cc1)Nc1ccc(F)c(C(F)(F)F)c1 [Compound C28, 1-(4-fluoro-3-(trifluoromethyl)phenyl)-3-(4-(3-(piperidin-4-yl)quinoxaline-6-carbonyl)phenyl)urea]",inhibition at 1 µM,BRAF V600E,70 to 89%
same,IC50,A375 cells,1000 to 5000 nM
same,inhibition at 1 µM,BRAF,< 70%
same,inhibition at 1 µM,KDR (VEGFR2),< 70%
same,IC50,A549 cells,> 5000 nM
"O=C(Nc1ccc(C(=O)c2ccc3ncc(N4CCOCC4)nc3c2)cc1)Nc1ccc(C(F)(F)F)cc1 [Compound C08, 1-(4-(3-morpholinoquinoxaline-6-carbonyl)phenyl)-3-(4-(trifluoromethyl)phenyl)urea]",inhibition at 1 µM,BRAF V600E,< 70%
same,IC50,A375 cells,< 1000 nM
same,inhibition at 1 µM,KDR (VEGFR2),< 70%
same,IC50,A549 cells,1000 to 5000 nM
"O=C(Nc1ccc(F)cc1)Nc1ccc(C(=O)c2ccc3ncc(N4CCNCC4)nc3c2)cc1 [Compound C10, 1-(4-fluorophenyl)-3-(4-(3-(piperazin-1-yl)quinoxaline-6-carbonyl)phenyl)urea]",inhibition at 1 µM,BRAF V600E,> 89%
same,IC50,A375 cells,1000 to 5000 nM
same,inhibition at 1 µM,BRAF,< 70%
same,inhibition at 1 µM,KDR (VEGFR2),< 70%
same,IC50,A549 cells,1000 to 5000 nM
